Measured values taken from the NIST ThermoML archive (doi:10.1016/j.jct.2015.04.028).

Settings: Gas, Vibrating wire viscometry

[He] [helium]
Settings | viscosity [mPa·s]
296.26 K, 100.3 kPa | 0.01964
296.26 K, 332.1 kPa | 0.01983
296.26 K, 500.3 kPa | 0.01979
296.26 K, 716 kPa | 0.01982
322.56 K, 110.1 kPa | 0.02084
322.56 K, 306.5 kPa | 0.02096
322.56 K, 521.2 kPa | 0.02101
322.56 K, 723 kPa | 0.021
373.12 K, 111.6 kPa | 0.02307
373.12 K, 307.1 kPa | 0.02314
373.12 K, 504.2 kPa | 0.02318
373.12 K, 698.5 kPa | 0.02322
472.08 K, 111.5 kPa | 0.02712
472.08 K, 313.7 kPa | 0.02727
472.08 K, 504.9 kPa | 0.02725
472.08 K, 717.7 kPa | 0.02732
572.96 K, 111.1 kPa | 0.03107
572.96 K, 309.7 kPa | 0.03119
572.96 K, 514.3 kPa | 0.03119
572.96 K, 721.7 kPa | 0.03123

[HH] [hydrogen]
Settings | viscosity [mPa·s]
296.26 K, 102.8 kPa | 0.0089
296.26 K, 305.3 kPa | 0.00897
296.26 K, 501 kPa | 0.009
296.26 K, 700.6 kPa | 0.00902
322.56 K, 111 kPa | 0.00941
322.56 K, 302.4 kPa | 0.00946
322.56 K, 502 kPa | 0.00949
322.56 K, 698 kPa | 0.00951
373.12 K, 111.6 kPa | 0.01041
373.12 K, 301.2 kPa | 0.01047
373.12 K, 503.1 kPa | 0.01048
373.12 K, 701.4 kPa | 0.0105
472.13 K, 111.4 kPa | 0.01209
472.13 K, 298.9 kPa | 0.01214
472.13 K, 500.1 kPa | 0.01215
472.13 K, 701.1 kPa | 0.01216
573.48 K, 98.9 kPa | 0.01416
573.48 K, 298.2 kPa | 0.0142
573.48 K, 503 kPa | 0.01427
573.48 K, 701.6 kPa | 0.01425

N#N [nitrogen]
Settings | viscosity [mPa·s]
296.26 K, 99.9 kPa | 0.01766
296.26 K, 312.6 kPa | 0.01773
297.05 K, 500.9 kPa | 0.01783
297.05 K, 700.9 kPa | 0.01789
322.56 K, 109.8 kPa | 0.01884
322.56 K, 307.3 kPa | 0.01892
322.56 K, 500.7 kPa | 0.01899
322.56 K, 701.2 kPa | 0.01904
373.12 K, 111.2 kPa | 0.02104
373.12 K, 300.6 kPa | 0.02109
373.12 K, 503.2 kPa | 0.02119
373.12 K, 694.5 kPa | 0.02121
472.1 K, 110.2 kPa | 0.02498
472.1 K, 309.7 kPa | 0.025
472.1 K, 505.8 kPa | 0.02509
472.1 K, 703.4 kPa | 0.02513
572.98 K, 111.7 kPa | 0.02864
572.98 K, 316.1 kPa | 0.02867
572.98 K, 502 kPa | 0.02871
572.98 K, 703.4 kPa | 0.02868
